Test results taken from EP0771196B1, “EXCITATORY AMINO ACID RECEPTOR ANTAGONISTS” (ELI LILLY AND COMPANY, priority 1994, dated 1996).
Marks after values point to notes of the source that are not given here.

Test system: metabotropic glutamate receptors
Assay: Displacement of 1S,3R-ACPD-sensitive [3H]glutamate binding to rat brain cell membranes
Details: crude membranes of rat forebrain; for IC50: inhibition of [3H]glutamate binding; for ACPD-Sensitive [^3H]Glutamate Binding % Displacement at 10 µM: 10 µM compound
Experimental: The binding of [^3H]glutamate was conducted with crude membranes of rat forebrain as described by Schoepp and True. Schoepp and True, Neuroscience Lett., 145, 100-104 (1992) and True and Schoepp, Society for Neuroscience Abstracts, 19, 470 (1993). IC50 values for the inhibition of [^3H]glutamate binding, or the percent displacement of [^3H]glutamate binding at a 10 µM concentration, of the formula I compound, is shown in Table II.

Compound	IC50	other results
NC(CCc1ccc(Br)cc1)(C(=O)O)[C@H]1C[C@@H]1C(=O)O (mixture of isomers) [Example 82, 2SR- and 2RS-2-amino-2-(1SR,2SR-2-carboxycyclopropan-1-yl)-4-(4-bromophenyl)butanoic acid]	680 nM	–
NC(CCc1ccc(Cl)cc1)(C(=O)O)C1CC1C(=O)O (stereo not drawn) [Example 25, 2SR- and 2RS-2-amino-2-(1SR, 2SR-2-carboxycyclopropan-1-yl)-4-(4-chlorophenyl)butanoic acid]	410 nM	–
CCCCCCCCC(N)(C(=O)O)[C@H]1C[C@@H]1C(=O)O (mixture of isomers) [Example 13, 2SR- and 2RS-2-amino-2-(1SR,2SR-2-carboxycyclopropan-1-yl)decanoic acid]	1700 nM	–
NC(CCc1ccc(Cl)c(Cl)c1)(C(=O)O)C1CC1C(=O)O (stereo not drawn) [Example 48, 2SR- and 2RS-2-amino-2-(1SR,2SR-2-carboxycyclopropan-1-yl)-4-(3,4-dichlorophenyl)butanoic acid]	38 nM	–
NC(CCc1ccccc1Oc1ccccc1)(C(=O)O)[C@H]1C[C@@H]1C(=O)O (mixture of isomers) [Example 84, 2SR- and 2RS-2-amino-2-(1SR,2SR-2-carboxycyclopropan-1-yl)-4-(2-phenoxyphenyl)butanoic acid]	360 nM	–
COc1ccccc1CCC(N)(C(=O)O)C1CC1C(=O)O (stereo not drawn) [Example 26, 2SR- and 2RS-2-amino-2-(1SR,2SR-2-carboxycyclopropan-1-yl) -4-(2-methoxyphenyl)butanoic acid]	170 nM	–
NC(CCCC(c1ccccc1)c1ccccc1)(C(=O)O)C1CC1C(=O)O (stereo not drawn) [Example 7, 2SR- and 2RS-2-amino-2-(1SR,2SR-2-carboxycyclopropan-1-yl)-6,6-diphenylhexanoic acid]	7000 nM	–
Cc1cccc(CCC(N)(C(=O)O)[C@H]2C[C@@H]2C(=O)O)c1 (mixture of isomers) [Example 21, 2SR- and 2RS-2-amino-2-(1SR,2SR-2-carboxycyclopropan-1-yl)-4-(3-methylphenyl)butanoic acid]	38 nM	–
Cc1cccc(CCC(N)(C(=O)O)C2CC2C(=O)O)c1 [Example 68, 2S-2-amino-2-(1S,2S-2-carboxycyclopropan-1-yl)-4-(3-methylphenyl)butanoic acid]	12 ± 3 nM	–
NC(COc1ccccc1)(C(=O)O)C1CC1C(=O)O (stereo not drawn) [Example 39, 2SR- and 2RS-2-amino-2-(1SR,2SR-2-carboxycyclopropan-1-yl)-3-phenoxypropanoic acid]	11200 nM	–
NC(CCc1ccccc1F)(C(=O)O)[C@H]1C[C@@H]1C(=O)O (mixture of isomers) [Example 55, 2SR- and 2RS-2-amino-2-(1SR,2SR-2-carboxycyclopropan-1-yl)-4-(2-fluorophenyl)butanoic acid]	120 nM	–
NC(CCCc1ccccc1)(C(=O)O)C1CC1C(=O)O (stereo not drawn) [Example 3, 2SR- and 2RS-2-amino-2-(1SR,2SR-2-carboxycyclopropan-1-yl)-5-phenylpentanoic acid]	630 nM	–
CC(C)C(N)(C(=O)O)[C@H]1C[C@@H]1C(=O)O (mixture of isomers) [Example 14, 2SR- and 2RS-2-amino-2-(1SR,2SR-2-carboxycyclopropan-1-yl)-3-methylbutanoic acid]	–	ACPD-Sensitive [^3H]Glutamate Binding % Displacement at 10 µM: (17%)
NC(Cc1ccccc1)(C(=O)O)C1CC1C(=O)O (stereo not drawn) [Example 1, 2SR- and 2RS-2-amino-2-(1SR,2SR-2-carboxycyclopropan-1-yl)-3-phenylpropanoic acid]	–	ACPD-Sensitive [^3H]Glutamate Binding % Displacement at 10 µM: (61%)
NC(CCC1C2CCCC1CCC2)(C(=O)O)[C@H]1C[C@@H]1C(=O)O (mixture of isomers) [Example 83, 2SR- and 2RS-2-amino-2-(1SR,2SR-2-carboxycyclopropan-1-yl)-4-(9-bicyclo[3.3.1]nonanyl)butanoic acid]	2600 nM	–
2R-2- amino-2-(1R,2R-2-carboxycyclopropan-1-yl)-3-(dibenzopyran-4-yl)propanoic acid [Example 74]	4200 nM	–
CC(N)(C(=O)O)C1CC1C(=O)O (stereo not drawn) [Example 8, 2SR- and 2RS-2-amino-2-(1SR,2SR-2-carboxycyclopropan-1-yl)propanoic acid, reference compound]	6200 nM	–
NC(CCc1cccc(Oc2ccccc2)c1)(C(=O)O)[C@H]1C[C@@H]1C(=O)O (mixture of isomers) [Example 60, 2SR- and 2RS-2-amino-2-(1SR,2SR-2-carboxycyclopropan-1-yl)-4-(3-phenoxyphenyl)butanoic acid]	170 nM	–
CC(C)CCC(N)(C(=O)O)[C@H]1C[C@@H]1C(=O)O (mixture of isomers) [Example 16, 2SR- and 2RS-2-amino-2-(1SR,2SR-2-carboxycyclopropan-1-yl)-5-methylhexanoic acid]	1100 nM	–

Compound	IC50	other results
NC(CCc1ccc(C(=O)O)cc1)(C(=O)O)[C@H]1C[C@@H]1C(=O)O (mixture of isomers) [Example 80, 2SR- and 2RS-2-amino-2-(1SR,2SR-2-carboxycyclopropan-1-yl)-4-(4-carboxyphenyl)butanoic acid]	370 nM	–
NC(CCc1cccc(C(F)(F)F)c1)(C(=O)O)C1CC1C(=O)O (stereo not drawn) [Example 37, 2SR- and 2RS-2-amino-2-(1SR,2SR-2-carboxycyclopropan-1-yl)-4-(3-(trifluoromethyl)phenyl)butanoic acid]	64 nM	–
NC(CCc1ccccc1O)(C(=O)O)C1CC1C(=O)O (stereo not drawn) [Example 29, 2SR- and 2RS-2-amino-2-(1SR,2SR-2-carboxycyclopropan-1-yl)-4-(2-hydroxyphenyl)butanoic acid]	100 nM	–
NC(CCC1CCCCC1)(C(=O)O)C1CC1C(=O)O (stereo not drawn) [Example 44, 2SR- and 2RS-2-amino-2-(1SR,2SR-2-carboxycyclopropan-1-yl)-4-(cyclohexyl)butanoic acid]	380 nM	–
NC(CCC(c1ccccc1)c1ccccc1)(C(=O)O)C1CC1C(=O)O (stereo not drawn) [Example 6, 2SR- and 2RS-2-amino-2-(1SR,2SR-2-carboxycyclopropan-1-yl)-5,5-diphenylpentanoic acid]	7100 nM	–
NC(CCc1cccc(O)c1)(C(=O)O)C1CC1C(=O)O (stereo not drawn) [Example 30, 2SR- and 2RS-2-amino-2-(1SR,2SR-2-carboxycyclopropan-1-yl)-4-(3-hydroxyphenyl)butanoic acid]	80 nM	–
COc1ccc(OC)c(CCC(N)(C(=O)O)C2CC2C(=O)O)c1 (stereo not drawn) [Example 32, 2SR- and 2RS-2-amino-2-(1SR,2SR-2-carboxycyclopropan-1-yl)-4-(2,5-dimethoxyphenyl)butanoic acid]	170 nM	–
N[C@](Cc1cccc2c1Oc1ccccc1C2)(C(=O)O)[C@@H]1C[C@H]1C(=O)O [Example 73, 2S-2 amino-2-(1R,2R-2-carboxycyclopropan-1-yl)-3-(dibenzopyran-4-yl)propanoic acid]	860 nM	–
CCCC(N)(C(=O)O)C1CC1C(=O)O (stereo not drawn) [Example 10, 2SR- and 2RS-2-amino-2-(1SR,2SR-2-carboxycyclopropan-1-yl)pentanoic acid]	2100 nM	–
CC(C)CC(N)(C(=O)O)[C@H]1C[C@@H]1C(=O)O (mixture of isomers) [Example 15, 2SR- and 2RS-2-amino-2-(1SR,2SR-2-carboxycyclopropan-1-yl)-4-methylpentanoic acid]	700 nM	–
Cc1cccc(CCC(N)(C(=O)O)C2CC2C(=O)O)c1 [Example 67, 2R-2-amino-2-(1S,2S-2-carboxycyclopropan-1-yl)-4-(3-methylphenyl)butanoic acid]	–	ACPD-Sensitive [^3H]Glutamate Binding % Displacement at 10 µM (10 µM): (22%)^b
NC(C(=O)O)(C1Cc2ccccc2C1)C1CC1C(=O)O (stereo not drawn) [Example 43, 2SR- and 2RS-2-amino-2-(1SR,2SR-2-carboxycyclopropan-1-yl)-2-(indan-2-yl)ethanoic acid]	–	ACPD-Sensitive [^3H]Glutamate Binding % Displacement at 10 µM: (32%)
NC(CCc1ccc(C(F)(F)F)cc1)(C(=O)O)[C@H]1C[C@@H]1C(=O)O (mixture of isomers) [Example 56, 2SR- and 2RS-2-amino-2-(1SR,2SR-2-carboxycyclopropan-1-yl)-4-(4-(trifluoromethyl)phenyl)butanoic acid]	610 nM	–
NC(CCc1cccc2ccccc12)(C(=O)O)[C@H]1C[C@@H]1C(=O)O (mixture of isomers) [Example 18, 2SR- and 2RS-2-amino-2-(1SR,2SR-2-carboxycyclopropan-1-yl)-4-(naphth-1-yl)butanoic acid]	140 nM	–
COc1ccc(CCC(N)(C(=O)O)C2CC2C(=O)O)cc1 (stereo not drawn) [Example 28, 2SR- and 2RS-2-amino-2-(1SR,2SR-2-carboxycyclopropan-1-yl)-4-(4-methoxyphenyl)butanoic acid]	1400 nM	–
NC(CCc1ccc(Cl)cc1Cl)(C(=O)O)C1CC1C(=O)O (stereo not drawn) [Example 47, 2SR- and 2RS-2-amino-2-(1SR,2SR-2-carboxycyclopropan-1-yl)-4-(2,4-dichlorophenyl)butanoic acid]	220 nM	–
Cn1cc(CCC(N)(C(=O)O)[C@H]2C[C@@H]2C(=O)O)c2ccccc21 (mixture of isomers) [Example 61, 2SR- and 2RS-2-amino-2-(1SR,2SR-2-carboxycyclopropan-1-yl)-4-(1-methylindol-3-yl)butanoic acid]	280 nM	–
NC(CCc1cccc(C(=O)O)c1)(C(=O)O)[C@H]1C[C@@H]1C(=O)O (mixture of isomers) [Example 79, 2SR- and 2RS-2-amino-2-(1SR,2SR-2-carboxycyclopropan-1-yl)-4-(3-carboxyphenyl)butanoic acid]	49 nM	–
COc1cccc(CCC(N)(C(=O)O)[C@H]2C[C@@H]2C(=O)O)c1OC (mixture of isomers) [Example 52, 2SR- and 2RS-2-amino-2-(1SR,2SR-2-carboxycyclopropan-1-yl)-4-(2,3-dimethoxyphenyl)butanoic acid]	4900 nM	–
